# Calls of active or inactive are those of the source.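 How the source made its calls: active means phosphorylated EGFR protein level shifted down or up by at least 30% versus solvent-only treated cells; inactive means shift under 30% in either direction.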
# Molecular target: Epidermal growth factor receptor (Homo sapiens) (UniProt P00533)
# Test: decrease of p-EGFR levels in colorectal cells – SW620 cells, chemiluminescent western blot, powder samples, counter-screen for KLF5 inhibitor project, late-stage follow-up (AID 588677)
# Details: 24 h, at 10 µM; for fold change: measured here: p-EGFR band fold change vs DMSO
# Epidermal growth factor receptor (Homo sapiens), sequence (P00533 whole entry, looked up): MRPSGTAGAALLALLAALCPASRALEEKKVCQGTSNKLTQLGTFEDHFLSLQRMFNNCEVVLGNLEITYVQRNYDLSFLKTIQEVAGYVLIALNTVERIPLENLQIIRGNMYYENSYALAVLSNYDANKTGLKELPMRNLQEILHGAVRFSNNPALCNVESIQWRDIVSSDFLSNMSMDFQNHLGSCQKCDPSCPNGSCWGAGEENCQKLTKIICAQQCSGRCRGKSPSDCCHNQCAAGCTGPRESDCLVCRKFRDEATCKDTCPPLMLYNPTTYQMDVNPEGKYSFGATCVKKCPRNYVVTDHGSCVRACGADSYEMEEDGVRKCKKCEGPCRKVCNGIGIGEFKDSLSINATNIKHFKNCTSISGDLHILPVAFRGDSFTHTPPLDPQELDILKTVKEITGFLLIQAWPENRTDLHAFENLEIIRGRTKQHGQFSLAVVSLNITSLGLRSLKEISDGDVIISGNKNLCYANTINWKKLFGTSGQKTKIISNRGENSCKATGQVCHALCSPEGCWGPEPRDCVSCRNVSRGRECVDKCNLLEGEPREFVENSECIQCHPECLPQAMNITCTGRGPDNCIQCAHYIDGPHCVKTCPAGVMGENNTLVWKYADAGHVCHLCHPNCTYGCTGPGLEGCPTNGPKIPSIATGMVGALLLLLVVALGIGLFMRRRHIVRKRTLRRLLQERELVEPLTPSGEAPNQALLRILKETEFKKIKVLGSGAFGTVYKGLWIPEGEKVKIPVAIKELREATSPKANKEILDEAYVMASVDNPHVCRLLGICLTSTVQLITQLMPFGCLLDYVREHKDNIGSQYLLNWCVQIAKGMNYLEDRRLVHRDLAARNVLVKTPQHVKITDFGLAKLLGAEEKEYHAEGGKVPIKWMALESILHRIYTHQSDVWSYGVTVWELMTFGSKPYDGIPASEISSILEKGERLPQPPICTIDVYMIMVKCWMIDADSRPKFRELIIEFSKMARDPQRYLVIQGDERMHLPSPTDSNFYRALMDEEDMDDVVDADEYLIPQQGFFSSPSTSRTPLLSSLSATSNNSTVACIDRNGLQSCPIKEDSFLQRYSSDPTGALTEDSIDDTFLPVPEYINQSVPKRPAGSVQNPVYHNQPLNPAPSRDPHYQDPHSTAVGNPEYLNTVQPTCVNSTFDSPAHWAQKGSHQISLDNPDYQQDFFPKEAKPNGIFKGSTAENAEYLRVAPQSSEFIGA
inhibition,SMILES,fold change
20% (inactive),CN(C(=O)CNC(=O)/C=C/c1cccc(Cl)c1)C1CCS(=O)(=O)C1 (stereo not given),-1.25
,CN(C(=O)CNC(=O)/C=C/c1cccc(Cl)c1)C1CCS(=O)(=O)CC1,14.2
-71.5%,CN(C(=O)COC(=O)/C=C/c1cccc([N+](=O)[O-])c1)C1CCS(=O)(=O)C1 (stereo not given),1.72
